For the experiment, the target named is human secretin receptor (Homo sapiens, UniProt P47872). Description: cAMP responses in CHO-SecR cells. Conditions: Figure 4, responses not significantly different from 1. The format is cell-based.
human secretin receptor, sequence (P47872 23-440): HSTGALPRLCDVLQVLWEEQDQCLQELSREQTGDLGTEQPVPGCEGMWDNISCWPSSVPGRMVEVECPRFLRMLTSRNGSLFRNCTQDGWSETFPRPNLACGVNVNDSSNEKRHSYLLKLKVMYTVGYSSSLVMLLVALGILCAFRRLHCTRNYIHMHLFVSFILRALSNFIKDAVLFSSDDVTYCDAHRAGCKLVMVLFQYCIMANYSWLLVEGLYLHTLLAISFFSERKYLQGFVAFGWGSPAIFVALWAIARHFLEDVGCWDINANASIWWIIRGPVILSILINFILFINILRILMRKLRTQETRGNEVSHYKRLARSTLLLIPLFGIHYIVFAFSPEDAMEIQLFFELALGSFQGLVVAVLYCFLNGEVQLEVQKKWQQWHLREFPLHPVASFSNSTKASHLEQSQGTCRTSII

On to “cyclic [Glu^16,Lys^20][Tyr^10]human secretin(1-27) [compound 14]”, for which the “agonist character, cAMP responses compared with [Y^10]sec(1-27) (1)” value was “full agonists”. With “cyclic [Glu^16,Lys^20]human secretin(1-27) [compound 15]”, the “agonist character, cAMP responses compared with [Y^10]sec(1-27) (1)” value is listed as “full agonists”.

For the origin of these results see paper PMC3177990 (Biochemistry, 2011).
